Source: patent US20200247794A1, “PHARMACOPHORES, COMPOUNDS AND METHODS HAVING APPLICATION IN THE TREATMENT OF CANCER THROUGH INHIBITION OF CYP17A1 AND CYP19A1” (MANGOSUTHU UNIVERSITY OF TECHNOLOGY, priority 2015, published 2020)

Columns and labels:
CYP2C19 = biological target: T1, CYP2C19 (Homo sapiens, UniProt P33261); assay: CYP inhibition, 5 CYP bactosome mix: CYP2C19 ((S)-mephenytoin); format: in vitro ADME; details: (S)-mephenytoin 40 μM
T1 construct: purchased Cypex, Dundee CYP/XG001, Batch XG001001; host or cells: E. coli
T1 sequence (P33261 whole entry): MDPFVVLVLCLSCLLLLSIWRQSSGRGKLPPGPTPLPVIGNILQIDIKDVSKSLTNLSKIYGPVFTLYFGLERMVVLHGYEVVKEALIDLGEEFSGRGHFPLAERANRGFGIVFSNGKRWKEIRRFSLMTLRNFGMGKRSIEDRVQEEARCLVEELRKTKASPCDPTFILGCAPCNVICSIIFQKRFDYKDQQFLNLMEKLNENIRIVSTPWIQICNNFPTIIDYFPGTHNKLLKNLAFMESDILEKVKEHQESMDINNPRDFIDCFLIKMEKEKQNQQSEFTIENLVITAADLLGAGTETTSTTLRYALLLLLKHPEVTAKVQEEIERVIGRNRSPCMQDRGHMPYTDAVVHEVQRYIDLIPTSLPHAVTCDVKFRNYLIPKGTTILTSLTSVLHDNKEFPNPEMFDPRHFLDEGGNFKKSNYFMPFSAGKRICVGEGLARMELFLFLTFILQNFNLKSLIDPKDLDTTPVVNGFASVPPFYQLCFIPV
From the text: (§1) CYP Inhibition Against Major 5 Human Liver CYPs in E. coli CYPEX Membranes
The final DMSO concentration was 1%.

CYP3A4 = biological target: T2, CYP3A4 (Homo sapiens, UniProt P08684); assay: CYP inhibition, 5 CYP bactosome mix: CYP3A4 (midazolam); format: in vitro ADME; details: midazolam 2.5 μM
T2 construct: purchased Cypex, Dundee CYP/XG001, Batch XG001001; host or cells: E. coli
T2 sequence (P08684 whole entry): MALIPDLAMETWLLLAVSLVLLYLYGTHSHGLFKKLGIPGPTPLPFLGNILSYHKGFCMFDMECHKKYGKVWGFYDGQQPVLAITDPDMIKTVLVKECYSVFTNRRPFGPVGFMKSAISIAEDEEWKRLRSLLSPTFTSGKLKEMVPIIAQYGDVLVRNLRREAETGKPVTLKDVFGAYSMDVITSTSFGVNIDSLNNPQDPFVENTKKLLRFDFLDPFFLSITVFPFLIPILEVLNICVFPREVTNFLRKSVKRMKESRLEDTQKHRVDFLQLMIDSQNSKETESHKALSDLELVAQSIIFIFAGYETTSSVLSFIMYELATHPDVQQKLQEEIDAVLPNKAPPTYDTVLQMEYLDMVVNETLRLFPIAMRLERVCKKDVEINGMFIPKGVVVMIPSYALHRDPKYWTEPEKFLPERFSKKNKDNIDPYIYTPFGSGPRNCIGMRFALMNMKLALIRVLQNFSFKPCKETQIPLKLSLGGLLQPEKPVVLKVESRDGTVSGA
From the text: as §1
The final DMSO concentration was 1%.

CYP17A1 = biological target: T3, CYP17A1 (Homo sapiens, UniProt P05093); assay: CYP17A1 inhibition (CYP17A1 bactosomes, progesterone substrate, LC-MS/MS); format: biochemical; set-up: purchased Cypex, Dundee, UK; host or cells: bacterial membranes (bactosomes)
T3 sequence (P05093 1-508): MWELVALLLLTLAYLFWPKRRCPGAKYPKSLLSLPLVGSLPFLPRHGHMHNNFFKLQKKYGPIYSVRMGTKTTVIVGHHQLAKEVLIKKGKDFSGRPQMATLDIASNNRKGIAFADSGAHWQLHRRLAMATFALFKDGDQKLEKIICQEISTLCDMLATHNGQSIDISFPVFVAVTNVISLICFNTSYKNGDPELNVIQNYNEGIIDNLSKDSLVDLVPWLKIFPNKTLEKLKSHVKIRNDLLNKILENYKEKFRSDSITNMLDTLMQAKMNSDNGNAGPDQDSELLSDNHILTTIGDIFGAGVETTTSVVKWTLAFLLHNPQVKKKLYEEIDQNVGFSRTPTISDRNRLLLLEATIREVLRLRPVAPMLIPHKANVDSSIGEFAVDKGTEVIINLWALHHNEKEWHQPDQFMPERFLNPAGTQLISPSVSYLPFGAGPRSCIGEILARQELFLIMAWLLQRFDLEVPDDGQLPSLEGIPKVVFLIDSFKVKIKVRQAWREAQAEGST
Method: CYP17A1 inhibition was measured using 20 pmol/ml CYP17A1 bactosomes (Cypex, Dundee, UK) and 0.1 μM progesterone as a substrate and 1 mM NADPH in 50 mM potassium phosphate buffer pH 7.4 containing 5 mM magnesium chloride. Inhibitors were dissolved in DMSO and serially diluted in seven ½ log steps, final concentrations ranging from 50 μM to 50 nM. Reaction volume was 100 μl and final DMSO concentration was 1% (v/v). Reactions were started by the addition of NADPH and incubated at 37° C. for 20 minutes with shaking at 1800 rpm on a Bioshake IQ (Q-Instruments, Jena, Germany). Reactions were terminated by the addition of 200 μl methanol containing 1 μM tolbutamide as an internal standard.

CYP2D6 = biological target: T4, CYP2D6 (Homo sapiens, UniProt P10635); assay: CYP inhibition, 5 CYP bactosome mix: CYP2D6 (bufuralol); format: in vitro ADME; details: bufuralol 10 μM
T4 construct: purchased Cypex, Dundee CYP/XG001, Batch XG001001; host or cells: E. coli
T4 sequence (P10635 whole entry): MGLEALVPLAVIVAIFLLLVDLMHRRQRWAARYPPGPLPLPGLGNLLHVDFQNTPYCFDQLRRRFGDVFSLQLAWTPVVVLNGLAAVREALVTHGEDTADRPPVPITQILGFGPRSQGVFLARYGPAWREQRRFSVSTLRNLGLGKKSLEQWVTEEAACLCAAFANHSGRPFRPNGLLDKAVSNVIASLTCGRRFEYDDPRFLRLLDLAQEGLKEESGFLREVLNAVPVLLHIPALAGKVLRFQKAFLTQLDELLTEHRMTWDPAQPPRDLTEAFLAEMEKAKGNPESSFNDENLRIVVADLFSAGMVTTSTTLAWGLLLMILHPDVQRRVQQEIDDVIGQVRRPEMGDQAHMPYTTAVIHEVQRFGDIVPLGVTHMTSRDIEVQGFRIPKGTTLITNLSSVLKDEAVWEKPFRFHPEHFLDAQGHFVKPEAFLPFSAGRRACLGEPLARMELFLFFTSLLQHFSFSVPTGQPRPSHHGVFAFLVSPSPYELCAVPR
From the text: as §1
The final DMSO concentration was 1%.

CYP1A2 = biological target: T5, CYP1A2 (Homo sapiens, UniProt P05177); assay: CYP inhibition, 5 CYP bactosome mix: CYP1A2 (tacrine); format: in vitro ADME; details: tacrine 0.5 μM
T5 construct: purchased Cypex, Dundee CYP/XG001, Batch XG001001; host or cells: E. coli
T5 sequence (P05177 1-516): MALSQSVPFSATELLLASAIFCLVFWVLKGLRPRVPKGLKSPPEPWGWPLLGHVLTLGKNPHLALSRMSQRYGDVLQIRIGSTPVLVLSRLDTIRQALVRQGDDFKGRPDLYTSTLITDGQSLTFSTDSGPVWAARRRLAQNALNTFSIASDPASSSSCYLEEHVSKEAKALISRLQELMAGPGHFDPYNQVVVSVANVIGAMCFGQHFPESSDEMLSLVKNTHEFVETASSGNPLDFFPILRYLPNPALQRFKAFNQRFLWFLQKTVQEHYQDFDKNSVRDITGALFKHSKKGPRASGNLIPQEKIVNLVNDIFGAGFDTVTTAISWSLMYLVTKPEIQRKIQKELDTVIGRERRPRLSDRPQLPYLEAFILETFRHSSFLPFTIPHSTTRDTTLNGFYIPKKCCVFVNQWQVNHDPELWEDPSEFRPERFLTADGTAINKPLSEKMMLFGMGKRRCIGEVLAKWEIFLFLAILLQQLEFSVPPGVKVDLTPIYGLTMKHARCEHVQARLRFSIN
From the text: as §1
The final DMSO concentration was 1%.

[1] = system: CYP1A2, CYP2C9, CYP2C19, CYP2D6, and CYP3A4; assay: CYP inhibition against major 5 human liver CYPs (panel, summary in words); format: in vitro ADME; details: drug-drug interaction remark
Solubility in DMSO = format: physicochemical

What does the source list for `Cc1nc(SC(C(=O)c2c[nH]c3ccccc23)c2ccccc2)sc1CC(N)=O` (racemic) [Compound 3, 2-(2-{[2-(1H-indol-3-yl)-2-oxo-1-phenylethyl]sulfanyl}-4-methyl-1,3-thiazol-5-yl)acetamide]?
IC50 (CYP2C19): 8.3 µM; IC50 (CYP3A4): 2.7 µM; safety profile (Toxicity studies): reasonably good safety profiles; IC50 (CYP17A1; 20 pmol/ml bactosomes, 0.1 μM progesterone, 50 μM to 50 nM): > 34.1 µM; inhibitory potency of CYP17A1 (in words) (CYP17A1; summary of Table 2): micromolar levels; IC50 (CYP2D6): 15 µM; IC50 (CYP1A2): 12.6 µM; inhibition of metabolic CYP450 isoforms (in words) [1]: inhibit various CYP450 isoforms; Soluble in DMSO (Solubility in DMSO): Yes
